Reference: PubChem BioAssay AID1963430 (Molecular Pharmacology Branch, DTP, NCI, 2024)
Several values for one entry are separate records, joined by “and”; a condition that tells them apart may be missing. Identical values can stand only once. Each block holds one molecule with its values, some of them ahead of it.

Tested on: 521955-158-R2-J5-PDC complex spheroid growth, % test/control
Test: Anticancer human tumor 521955-158-R2-J5-PDC patient-derived pancreatic carcinoma cell line growth inhibition [Asc]
Settings: for viability, T/C: stronger effect = lower value
Procedure, shortened: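 Spheroid model: tumor line + HUVEC + hMSC. Single agents and combinations; top conc. at/near clinical Cmax (10 microM if undetermined), half-log dilutions. DMSO stocks at 800-fold test concentration.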

[1] = curve of first compound, second compound 0.1 µM
[2] = curve of first compound, second compound 0.316 µM
[3] = curve of first compound, second compound 1 µM
[4] = curve of first compound, second compound 3.16 µM
[5] = curve of first compound, second compound 10 µM
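Note: spheroids exposed to agents for 7 days before readout.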
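Throughout, for viability, T/C: 100% = DMSO vehicle control viability.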

IC50 [1]: 8.11 nM
IC50 [2]: 9.46 nM
IC50 [3]: < 3.16 nM
IC50 [4]: < 3.16 nM
IC50 [5]: 173 nM
Structure (SMILES): COc1c(OCCCN2CCOCC2)ccc2c3n(c(=NC(=O)c4cnc(N)nc4)nc12)CCN3 + Cc1c(S(C)(=O)=O)c(-c2cc(F)cc(N3CCN(c4ccc(NS(=O)(=O)c5ccc(NC(CCN6CCC(C(=O)OCCCP(=O)(O)O)CC6)CSc6ccccc6)c(S(=O)(=O)C(F)(F)F)c5)cc4)CC3)c2)c(-c2ccc(Cl)cc2)n1C(C)C
viability, T/C (second compound 0.1 µM, first compound 0.00316 µM): 58.2%
viability, T/C (second compound 0.1 µM, first compound 0.01 µM): 52.3%
viability, T/C (second compound 0.1 µM, first compound 0.0316 µM): 30.2%
viability, T/C (second compound 0.1 µM, first compound 0.1 µM): 31.4%
viability, T/C (second compound 0.1 µM, first compound 0.316 µM): 18%
viability, T/C (second compound 0.1 µM, first compound 1 µM): 8.91%
viability, T/C (second compound 0.316 µM, first compound 0.00316 µM): 65.2%
viability, T/C (second compound 0.316 µM, first compound 0.01 µM): 53.1%
viability, T/C (second compound 0.316 µM, first compound 0.0316 µM): 27.2%
viability, T/C (second compound 0.316 µM, first compound 0.1 µM): 31.2%
viability, T/C (second compound 0.316 µM, first compound 0.316 µM): 13.1%
viability, T/C (second compound 0.316 µM, first compound 1 µM): 10.8%
viability, T/C (second compound 1 µM, first compound 0.00316 µM): 39.3%
viability, T/C (second compound 1 µM, first compound 0.01 µM): 39.6%
viability, T/C (second compound 1 µM, first compound 0.0316 µM): 38.9%
viability, T/C (second compound 1 µM, first compound 0.1 µM): 33.2%
viability, T/C (second compound 1 µM, first compound 0.316 µM): 11%
viability, T/C (second compound 1 µM, first compound 1 µM): 3.88%
viability, T/C (second compound 3.16 µM, first compound 0.00316 µM): 45.4%
viability, T/C (second compound 3.16 µM, first compound 0.01 µM): 50.5%
viability, T/C (second compound 3.16 µM, first compound 0.0316 µM): 39.9%
viability, T/C (second compound 3.16 µM, first compound 0.1 µM): 32%
viability, T/C (second compound 3.16 µM, first compound 0.316 µM): 14%
viability, T/C (second compound 3.16 µM, first compound 1 µM): 2.79%
viability, T/C (second compound 10 µM, first compound 0.00316 µM): 189%
viability, T/C (second compound 10 µM, first compound 0.01 µM): 133%
viability, T/C (second compound 10 µM, first compound 0.0316 µM): 166%
viability, T/C (second compound 10 µM, first compound 0.1 µM): 87.5%
viability, T/C (second compound 10 µM, first compound 0.316 µM): 11.1%
viability, T/C (second compound 10 µM, first compound 1 µM): 7%

IC50 (curve of compound): > 10000 nM
Structure (SMILES): C=CC(=O)N1CCN(c2nc(=O)n(-c3c(C)ccnc3C(C)C)c3nc(-c4c(O)cccc4F)c(F)cc23)C(C)C1 (configuration not stated)
viability, T/C (compound 0.0316 µM): 87.7% and 88.9% and 88.2%
viability, T/C (compound 0.1 µM): 72.1% and 90.3% and 87.8%
viability, T/C (compound 0.316 µM): 76.3% and 92.3% and 90.2%
viability, T/C (compound 1 µM): 108% and 87.7% and 113%
viability, T/C (compound 3.16 µM): 102% and 121% and 112%
viability, T/C (compound 10 µM): 101% (2×) and 95.5%

IC50 [1]: 1.94 nM
IC50 [2]: < 0.949 nM
IC50 [3]: 1.36 nM
IC50 [4]: 1.25 nM
IC50 [5]: 25.3 nM
Structure (SMILES): NC(=O)C(=Cn1cnc(-c2cc(C(F)(F)F)cc(C(F)(F)F)c2)n1)c1cncnc1 + Cc1c(S(C)(=O)=O)c(-c2cc(F)cc(N3CCN(c4ccc(NS(=O)(=O)c5ccc(NC(CCN6CCC(C(=O)OCCCP(=O)(O)O)CC6)CSc6ccccc6)c(S(=O)(=O)C(F)(F)F)c5)cc4)CC3)c2)c(-c2ccc(Cl)cc2)n1C(C)C
viability, T/C (second compound 0.1 µM, first compound 0.000949 µM): 77.2%
viability, T/C (second compound 0.1 µM, first compound 0.003 µM): 33.3%
viability, T/C (second compound 0.1 µM, first compound 0.00949 µM): 28.4%
viability, T/C (second compound 0.1 µM, first compound 0.03 µM): 20.9%
viability, T/C (second compound 0.1 µM, first compound 0.0949 µM): 22.3%
viability, T/C (second compound 0.1 µM, first compound 0.3 µM): 28%
viability, T/C (second compound 0.316 µM, first compound 0.000949 µM): 44.5%
viability, T/C (second compound 0.316 µM, first compound 0.003 µM): 48%
viability, T/C (second compound 0.316 µM, first compound 0.00949 µM): 30%
viability, T/C (second compound 0.316 µM, first compound 0.03 µM): 23.2%
viability, T/C (second compound 0.316 µM, first compound 0.0949 µM): 17.2%
viability, T/C (second compound 0.316 µM, first compound 0.3 µM): 24.1%
viability, T/C (second compound 1 µM, first compound 0.000949 µM): 54.3%
viability, T/C (second compound 1 µM, first compound 0.003 µM): 40.5%
viability, T/C (second compound 1 µM, first compound 0.00949 µM): 21.4%
viability, T/C (second compound 1 µM, first compound 0.03 µM): 17.7%
viability, T/C (second compound 1 µM, first compound 0.0949 µM): 14.4%
viability, T/C (second compound 1 µM, first compound 0.3 µM): 14.8%
viability, T/C (second compound 3.16 µM, first compound 0.000949 µM): 53.2%
viability, T/C (second compound 3.16 µM, first compound 0.003 µM): 40%
viability, T/C (second compound 3.16 µM, first compound 0.00949 µM): 22.6%
viability, T/C (second compound 3.16 µM, first compound 0.03 µM): 13.5%
viability, T/C (second compound 3.16 µM, first compound 0.0949 µM): 9.75%
viability, T/C (second compound 3.16 µM, first compound 0.3 µM): 13.1%
viability, T/C (second compound 10 µM, first compound 0.000949 µM): 143%
viability, T/C (second compound 10 µM, first compound 0.003 µM): 106%
viability, T/C (second compound 10 µM, first compound 0.00949 µM): 91.4%
viability, T/C (second compound 10 µM, first compound 0.03 µM): 40.3%
viability, T/C (second compound 10 µM, first compound 0.0949 µM): 17.1%
viability, T/C (second compound 10 µM, first compound 0.3 µM): 10.8%
